Measured values: patent US7097988B1 (ADVANCED RESEARCH AND TECHNOLOGY INSTITUTE, dated 2006)

Experiments:
[1] = target: T1, μ-opioid receptor encoded by MOR-1 (inhibition of adenylyl cyclase) (Rattus norvegicus, UniProt P33535, V245I); test: Forskolin-stimulated cAMP levels in COS-7 cells expressing MOR-1; type: cell-based; settings: 100 nM DAGO, 10 μM forskolin, transfected cells, p<0.05
T1 construct: A 1.4-kilobase HindIII fragment encompassing the open reading frame from the cDNA encoding MOR-1 was cloned; expressed in transfected cells; host or cells: COS-7
T1 sequence (P33535 whole entry V245I, the tested form may be a part): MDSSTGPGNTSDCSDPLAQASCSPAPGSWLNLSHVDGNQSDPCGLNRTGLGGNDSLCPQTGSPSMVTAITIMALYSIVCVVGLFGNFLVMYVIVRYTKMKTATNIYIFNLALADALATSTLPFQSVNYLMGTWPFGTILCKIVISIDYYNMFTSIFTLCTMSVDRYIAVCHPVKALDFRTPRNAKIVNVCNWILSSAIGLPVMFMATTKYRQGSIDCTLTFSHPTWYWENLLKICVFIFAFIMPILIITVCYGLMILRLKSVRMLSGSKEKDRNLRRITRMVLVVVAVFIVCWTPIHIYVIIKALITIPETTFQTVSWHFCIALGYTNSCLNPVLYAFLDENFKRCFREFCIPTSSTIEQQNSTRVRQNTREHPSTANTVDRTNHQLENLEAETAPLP

mu opioid receptor = target: T2, mu opioid receptor (Rattus norvegicus, UniProt P33535, V245I); type: biochemical; settings: 10 μM DAMGO
T2 construct: expressed in transfected cells
T2 sequence (P33535 whole entry V245I): as the sequence (P33535 whole entry V245I, the tested form may be a part) above

[2] = target: T3, human μ opioid receptor coupled to G protein-activated K+ channel (Homo sapiens, UniProt P35372); type: cell-based
T3 construct: Messenger RNAs encoding both proteins (Chen and Yu, 1994) were generated by in vitro transcription and injected into Xenopus oocytes; expressed in transfected cells; host or cells: Xenopus laevis oocytes (mRNA injection)
T3 sequence (P35372 whole entry): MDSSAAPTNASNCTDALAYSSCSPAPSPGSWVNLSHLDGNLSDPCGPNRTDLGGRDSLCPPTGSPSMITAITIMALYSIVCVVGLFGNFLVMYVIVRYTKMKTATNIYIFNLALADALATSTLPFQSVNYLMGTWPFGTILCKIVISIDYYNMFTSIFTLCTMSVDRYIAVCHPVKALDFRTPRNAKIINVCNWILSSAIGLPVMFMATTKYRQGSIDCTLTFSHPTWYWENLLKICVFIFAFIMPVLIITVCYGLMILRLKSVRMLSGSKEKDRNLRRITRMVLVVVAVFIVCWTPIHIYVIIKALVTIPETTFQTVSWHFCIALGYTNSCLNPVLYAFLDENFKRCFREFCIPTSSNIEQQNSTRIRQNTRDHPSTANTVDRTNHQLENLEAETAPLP

rat μ opioid receptor = target: T4, rat μ opioid receptor (Rattus norvegicus, UniProt P33535, V245I); test: Saturation binding of [3H]DAMGO, membranes of CHO cells stably expressing rat μ opioid receptor (Example VII)
T4 construct: A plasmid containing a 1.4 kb cDNA for the rat μ opioid receptor in a mammalian expression vector pRc/CMV has been described; expressed in transfected cells
T4 sequence (P33535 whole entry V245I): as the sequence (P33535 whole entry V245I, the tested form may be a part) above

[3] = target: T5, rat μ opioid receptor coupled to G protein-activated K+ channel (Rattus norvegicus, UniProt P33535, V245I); type: cell-based
T5 construct: A cDNA clone, MOR-1, containing the protein coding region of a rat μ opioid receptor has been described; expressed in transfected cells; host or cells: Xenopus oocytes (mRNA injection)
T5 sequence (P33535 whole entry V245I): as the sequence (P33535 whole entry V245I, the tested form may be a part) above

[4] = target: T6, novel member of the opioid receptor gene family (SEQ ID NO: 17) (Rattus norvegicus, UniProt P35370); type: cell-based
T6 construct: mRNA of this clone was synthesized by in vitro transcription and coinjected into Xenopus oocytes; expressed in transfected cells; host or cells: Xenopus oocytes (mRNA injection)
T6 sequence (P35370 whole entry): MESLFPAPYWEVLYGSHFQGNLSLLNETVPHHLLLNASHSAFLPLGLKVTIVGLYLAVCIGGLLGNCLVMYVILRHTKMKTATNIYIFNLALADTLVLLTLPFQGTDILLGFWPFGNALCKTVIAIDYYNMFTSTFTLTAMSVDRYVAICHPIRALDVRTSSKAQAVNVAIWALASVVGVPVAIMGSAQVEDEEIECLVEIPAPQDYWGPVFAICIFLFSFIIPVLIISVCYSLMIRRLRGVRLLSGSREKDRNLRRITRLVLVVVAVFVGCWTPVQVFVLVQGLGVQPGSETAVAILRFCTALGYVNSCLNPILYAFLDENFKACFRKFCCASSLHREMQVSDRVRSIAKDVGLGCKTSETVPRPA

[5] = target: T7, mu opioid receptor / voltage-activated calcium channel (Rattus norvegicus, UniProt P33535, V245I); test: Barium currents in Xenopus oocytes coexpressing voltage-activated calcium channel and mu opioid receptor; type: cell-based; settings: 1 μM DAMGO for 5 min, entire activation voltage range
T7 construct: one cDNA clone contained an open reading frame of 1194 bp, encoding a protein of 398 amino acids; expressed in transfected cells; host or cells: Xenopus oocytes (plasmid microinjection)
T7 sequence (P33535 whole entry V245I): as the sequence (P33535 whole entry V245I, the tested form may be a part) above

human μ opioid receptor = human μ opioid receptor (Homo sapiens, UniProt P35372)
Chain of human μ opioid receptor (P35372 whole entry): as the sequence (P35372 whole entry) above

[6] = target: T8, rat μ opioid receptor (inhibition of adenylyl cyclase) (Rattus norvegicus, UniProt P33535, V245I)
T8 sequence (P33535 whole entry V245I): as the sequence (P33535 whole entry V245I, the tested form may be a part) above

cloned rat μ receptor = cloned rat μ receptor (Rattus norvegicus, UniProt P33535, V245I); settings: previously reported; cited from earlier work
Chain of cloned rat μ receptor (P33535 whole entry V245I): as the sequence (P33535 whole entry V245I, the tested form may be a part) above

[7] = target: T8, rat μ opioid receptor (inhibition of adenylyl cyclase); test: Cyclic AMP assay in transfected CHO cells, naive or chronically morphine-treated; settings: for DAMGO/control (forskolin + DAMGO vs forskolin only cAMP): 1 μM DAMGO, 2 μM forskolin; for Intracellular cAMP level, Forskolin + DAMGO: forskolin 2 μM, DAMGO 1 μM
cloned human μ receptor = cloned human μ receptor (Homo sapiens, UniProt P35372); test: Saturation binding of [3H]DAMGO, COS-7 membranes expressing cloned human μ receptor (Example XII); set-up: the cDNA containing the open reading frame of the receptor was cloned downstream of the human cytomegalovirus promoter in the mammalian expression vector pcDNA3; expressed in transfected cells; host or cells: COS-7 (transient)
Chain of cloned human μ receptor (P35372 whole entry): as the sequence (P35372 whole entry) above

[8] = cells treated with 1 μM morphine for 24 hours

C[C@@H](NC(=O)[C@@H](N)Cc1ccc(O)cc1)C(=O)NCC(=O)N(C)[C@@H](Cc1ccccc1)C(=O)NCCO [DAMGO, [D-Ala^2, N-Me-Phe^4, Gly-ol^5]-enkephalin]
reduction of cAMP levels from control [1]: 18.1±2.5%
increase of GTPase activity (mu opioid receptor): 30%
membrane current upon receptor activation (in words) [2]: an inward current was observed
Bmax (rat μ opioid receptor): ~630 fmol/mg membrane protein
membrane current upon DAMGO exposure (in words) [3]: produced an inward membrane current
induction of potassium conductance (in words) [4]: no potassium conductance was induced
reduction in barium currents through the calcium channel [5]: over 80%
Bmax (human μ opioid receptor): 381±25 fmol/mg of membrane protein
inhibition [6]: ~60%
Bmax (cloned rat μ receptor): 444 fmol/mg protein
effect on intracellular cAMP level in non-transfected parental CHO cells [7]: had no effect
DAMGO/control (forskolin + DAMGO vs forskolin only cAMP) [7, 8]: 42.4%
Intracellular cAMP level, Forskolin + DAMGO [7, 8]: 38.9 ± 1.4 fmol/1 × 10^3 cells
DAMGO/control (forskolin + DAMGO vs forskolin only cAMP) ([7]; naive cells): 71.9%
Intracellular cAMP level, Forskolin + DAMGO ([7]; naive cells): 25.6 ± 0.3 fmol/1 × 10^3 cells
Bmax (cloned human μ receptor): 232 fmol/mg
